Measurements reported in patent US7879563B2, “Method of screening for a carnitine transporter agonist or antagonist and its uses” (Sanofi-Aventis Deutschland GmbH, priority 2004, dated 2011).

How the values were obtained:
Type in all cases: cell-based
[1] = target: T1, carnitine transporter comprising the amino acid sequence SEQ ID NO: 2 (Mus musculus, UniProt Q9D687); assay: Transport activity of the mouse kidney and intestinal carnitine transporter
T1 sequence (Q9D687 1-634): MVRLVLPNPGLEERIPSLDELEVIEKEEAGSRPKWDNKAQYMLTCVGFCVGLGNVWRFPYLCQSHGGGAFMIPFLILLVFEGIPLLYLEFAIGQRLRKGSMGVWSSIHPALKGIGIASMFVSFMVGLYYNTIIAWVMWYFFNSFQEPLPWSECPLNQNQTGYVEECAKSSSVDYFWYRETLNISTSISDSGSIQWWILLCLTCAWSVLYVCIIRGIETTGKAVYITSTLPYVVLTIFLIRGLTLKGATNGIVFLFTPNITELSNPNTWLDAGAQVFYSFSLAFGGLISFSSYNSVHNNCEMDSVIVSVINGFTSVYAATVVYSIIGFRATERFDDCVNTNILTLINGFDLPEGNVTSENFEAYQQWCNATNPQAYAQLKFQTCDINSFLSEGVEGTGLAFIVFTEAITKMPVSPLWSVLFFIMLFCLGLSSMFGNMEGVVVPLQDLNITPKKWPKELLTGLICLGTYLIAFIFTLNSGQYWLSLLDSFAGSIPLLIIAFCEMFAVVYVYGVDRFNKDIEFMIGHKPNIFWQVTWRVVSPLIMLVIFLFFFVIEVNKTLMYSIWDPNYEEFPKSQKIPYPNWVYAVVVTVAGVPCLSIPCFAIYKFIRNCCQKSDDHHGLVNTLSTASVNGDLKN

[2] = target: T2, carnitine transporter comprising the amino acid sequence SEQ ID NO: 3 (Rattus norvegicus, UniProt Q2A865, F276Y/R32K/S186P); assay: Transport activity of the rat kidney and intestinal carnitine transporter
T2 sequence (Q2A865 1-634 R32K/S186P/F276Y): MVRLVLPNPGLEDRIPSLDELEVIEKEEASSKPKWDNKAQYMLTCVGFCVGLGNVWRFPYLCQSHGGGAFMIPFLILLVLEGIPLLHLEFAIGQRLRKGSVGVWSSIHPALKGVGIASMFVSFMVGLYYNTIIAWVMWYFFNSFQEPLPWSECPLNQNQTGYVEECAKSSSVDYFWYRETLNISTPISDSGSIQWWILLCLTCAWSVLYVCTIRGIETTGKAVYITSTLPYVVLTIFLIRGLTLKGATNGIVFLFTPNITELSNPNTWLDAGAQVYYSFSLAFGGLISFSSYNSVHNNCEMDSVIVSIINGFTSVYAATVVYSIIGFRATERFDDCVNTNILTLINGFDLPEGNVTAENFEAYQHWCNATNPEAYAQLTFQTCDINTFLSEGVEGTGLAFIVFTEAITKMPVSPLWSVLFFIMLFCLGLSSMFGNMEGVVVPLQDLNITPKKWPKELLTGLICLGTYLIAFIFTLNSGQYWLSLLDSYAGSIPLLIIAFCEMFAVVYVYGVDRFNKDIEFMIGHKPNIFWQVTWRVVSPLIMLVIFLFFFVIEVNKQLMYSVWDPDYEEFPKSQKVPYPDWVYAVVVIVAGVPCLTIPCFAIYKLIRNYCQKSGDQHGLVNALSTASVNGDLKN

[3] = target: T3, carnitine transporter comprising the amino acid sequence SEQ ID NO: 1 (Homo sapiens, UniProt Q695T7); assay: Tracer flux transport measurement in Xenopus laevis oocytes injected with cRNA comprising SEQ ID NO: 4; details: for kinetics of transport compared with the substrate L-carnitine (FIG. 2): SEQ ID NO: 1, other substrates
T3 construct: expressed in transfected cells; host or cells: Xenopus laevis oocytes injected with cRNA
T3 sequence (Q695T7 1-634): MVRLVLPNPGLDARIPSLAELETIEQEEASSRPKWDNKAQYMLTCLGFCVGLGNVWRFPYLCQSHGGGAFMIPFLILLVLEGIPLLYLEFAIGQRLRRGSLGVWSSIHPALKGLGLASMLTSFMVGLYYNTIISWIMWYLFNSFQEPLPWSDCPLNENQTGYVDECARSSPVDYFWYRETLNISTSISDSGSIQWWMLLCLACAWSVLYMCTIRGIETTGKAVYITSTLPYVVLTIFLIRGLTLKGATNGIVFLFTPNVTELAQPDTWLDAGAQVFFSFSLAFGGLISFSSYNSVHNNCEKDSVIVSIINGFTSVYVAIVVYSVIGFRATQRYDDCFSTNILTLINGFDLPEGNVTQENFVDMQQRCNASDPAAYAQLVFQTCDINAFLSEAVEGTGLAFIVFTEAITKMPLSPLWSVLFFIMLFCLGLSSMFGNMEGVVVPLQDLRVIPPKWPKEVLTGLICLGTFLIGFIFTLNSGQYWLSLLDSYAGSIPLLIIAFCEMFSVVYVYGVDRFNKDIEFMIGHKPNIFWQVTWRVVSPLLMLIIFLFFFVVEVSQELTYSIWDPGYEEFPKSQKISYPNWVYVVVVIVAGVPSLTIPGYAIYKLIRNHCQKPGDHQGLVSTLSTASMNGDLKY
Procedure: The transport measurements of radioactively labeled compounds were executed using Xenopus laevis oocytes in the so-called “tracer flux method”, wherein the transport rate of substrates across the oocyte membrane into the cytosol is determined.
A Xenopus laevis oocyte was injected with a cRNA molecule comprising SEQ ID NO: 4.
Injected oocytes were kept in the culture medium ORi comprising gentamycin (50 mg/L) at 18° C. until the measurement of substrate uptake. Injured, acutely altered or later heavily damaged cells were discarded.
After 72 hours the oocyte was used for screening for a carnitine transporter agonist or antagonist.
Polysterene wells treated with oocyte homogenate were filled with 200 μl substrate solution. The oocytes were first washed two times with ORi solution, before use in the determination. 8 to 10 oocytes were used in a reaction mixture, in order to enable statistical evaluations. After the addition of the oocytes into the substrate solution the reaction mixture was softly mixed and incubated. The incubation was carried through at 22° C. for 1 hour. In order to stop the reaction, 1 ml of ice cold ORi was added.
The oocytes were washed four times in 15 ml ice cold ORi. Subsequently the oocytes were individually transferred into a 6 ml counter vial. The oocyte plasma membrane was disrupted by adding 100 μl […] solution. The vials were slightly agitated to disrupt the plasma membrane. The plasma membrane was completely disrupted by agitation for 30 to 45 minutes. The lysates were mixed with 2 ml of a scintillation cocktail. The radioactivity of the lysates was determined in a liquid scintillation counter comprising a correction for the luminescence and an external standard. Each vial was counted for 5 minutes.
In order to determine the substrate concentration after the dropping in of the oocytes, 2×10 μl solution were removed from the reaction mixture, 100 μl 5% SDS solution was added and evaluations with the counter were carried out. The obtained values were considered in the calculation of the transport rates.
For the determination of concentration-dependent substrate uptake serial dilutions of the investigated substrate were prepared and the radioactivity was distributed, such that in each reaction mixture between 10000 and 20000 cpm were counted in the supernatant. For the KM determination the substrate uptake was measured for 1 hour. In addition, the measurement was carried through using H2O-injected oocytes, in order to determine the background, i.e. the unspecific substrate uptake, for example mediated by diffusion or by endogenous transport proteins. The transport rates were calculated and graphically plotted against the substrate concentration and adapted mathematically according to the Michaelis-Menten equation.

SMILES: CN(CC(=O)O)C(=N)N [creatine]
- transport of the substrate [1]: transport
- transport of the substrate [2]: transport
- transport of the substrate ([3]; SEQ ID NO: 1): transport
- kinetics of transport compared with the substrate L-carnitine (FIG. 2) [3]: comparable kinetics

SMILES: NCCc1c[nH]c2ccc(O)cc12 [serotonin]
- kinetics of transport compared with the substrate L-carnitine (FIG. 2) [3]: comparable kinetics

SMILES: C[N+](C)(C)C[C@H](O)CC(=O)[O-] [L-carnitine]
- kinetics of transport compared with FIG. 2 (SEQ ID NO: 1) [1]: comparable kinetics
- kinetics of transport compared with FIG. 2 (SEQ ID NO: 1) [2]: comparable kinetics

SMILES: C[n+]1ccc(-c2ccccc2)cc1 [methylphenylpyridinium]
- kinetics of transport compared with the substrate L-carnitine (FIG. 2) [3]: comparable kinetics

SMILES: NC[C@H](O)c1ccc(O)c(O)c1 [noradrenaline]
- kinetics of transport compared with the substrate L-carnitine (FIG. 2) [3]: comparable kinetics
